Test results: patent US4003945A, “Novel cyclopropanecarboxylates” (Sumitomo Chemical Company, Limited, priority 1973, dated 1977)
Values after ≈ are worked out from the molar mass of the structure shown. Read-outs that look alike come from different tables or passages of the source.

Tests used:
housefly adults = assay: Oil spray, Campbel's turn table, lethal concentration (Test Example 2); type: in vivo; conditions: Musca domestica, 24 h
Description: A group of about 100 housefly adults was exposed to descending spray for 10 minutes, thereafter was transferred to an observation cage, was fed, and was allowed to stand at room temperature.
After a day, the dead and alive were counted to calculate the lethal ratio.

[1] = tested on: leafhoppers of resistant and susceptible strains; assay: Emulsion sprayed on rice seedlings, leafhoppers released (Example XVI); type: in vivo, leafhopper; conditions: emulsion diluted to 50 times
Description: About 20 rice seedlings, cultivated for 20 days after sowing in a flower pot of 8.5 cm in diameter were sprayed with each of the present compounds (31, 32, 35, 39, 40, 42, 45, 48, 55, 59, 60, 63, 131 - 134, 139) in the form of an emulsion which were diluted to 50 times. Each pot was put into the beaker and covered with gauze, into which leafhoppers of resistant and susceptible strains, respectively, were released in each beaker. And the number of knocked down insects after 1 hour and the mortality after 24 hours were counted. As a result, the knock down per centage was more than 50% and the mortality was more than 80% in each case.

[2] = Table 3a, oil spray 5 ml, 10 minutes exposure, counted after a day, read-out: LC50

Structure (SMILES)	LC50 (housefly adults) [µg/mL]	knock down percentage after 1 hour [1]	mortality after 24 hours [1]	further results
C=CCC1=C(C)C(OC(=O)C2C(C=C(C)C)C2(C)C)CC1=O (centres unmarked) [Allethrin, reference compound]	3500 (≈ 11600 µM)	–	–	–
C#CC(OC(=O)C1C(C=C(C)C)C1(C)C)C(=CCCC)CC (centres unmarked) [Compound 5, 1-Ethynyl-2-ethyl-2-hexenyl chrysanthemate]	2400 (≈ 7930 µM)	–	–	–
C#CC(OC(=O)C1C(C=C(C)C)C1(C)C)C(C)=CCC=C (centres unmarked) [Compound 29, 1-Ethynyl-2-methyl-2,5-hexadienyl chrysanthemate]	900 (≈ 3140 µM)	–	–	–
C#CC(OC(=O)C1C(C)C1(C)C)C(=Cc1ccc(OCC)cc1)CC (stereo not drawn) [Compound 42, α-Ethynyl-β-ethyl-4-ethoxy-cinnamyl 2',2',3'-trimethyl-cyclopropanecarboxylate]	–	more than 50%	more than 80%	–
C#CC(OC(=O)C1C(C=C(C)C=C)C1(C)C)C(C)=Cc1ccc(C#N)cc1 (stereo not drawn) [Compound 45, α-Ethynyl-β-methyl-4-cyano-cinnamyl 2',2'-dimethyl-3'-(2"-methyl-1",3"-butadienyl)-cyclopropanecarboxylate]	–	more than 50%	more than 80%	–
C#CC(OC(=O)C1C(C)(C)C1(C)C)C(=Cc1ccccc1)C(C)C (stereo not drawn) [Compound 48, α-Ethynyl-β-isopropylcinnamyl 2,2,3,3-tetramethylcyclopropane-carboxylate]	–	more than 50%	more than 80%	–
C#CC(OC(=O)C1(C)C(C=C2CCCC2)C1(C)C)C(C)=Cc1ccccc1C (stereo not drawn) [Compound 55, α-Ethynyl-β-methyl-2-methyl-cinnamyl 1',2',2'-trimethyl-3'-cyclopentylidenemethyl-cyclopropanecarboxylate]	–	more than 50%	more than 80%	–
C#CC(OC(=O)C1C(C=C(Cl)Cl)C1(C)C)C(C)=Cc1ccccc1 (stereo not drawn) [Compound 59, α-Ethynyl-β-methylcinnamyl 2,2-dimethyl-3-(2',2'-dichloro-vinyl)cyclopropanecarboxylate]	–	more than 50%	more than 80%	–
C#CC(C=Cc1ccco1)OC(=O)C1C(C=C(C)C)C1(C)C (stereo not drawn) [Compound 60, α-Ethynyl-γ-(2-furyl)-allyl chrysanthemate]	–	more than 50%	more than 80%	–
C#CC(C#CCOC)OC(=O)C1C(C=C(C)C)C1(C)C (centres unmarked) [Compound 68, 1-Ethynyl-4-methoxy-2-butyn-1-yl chrysanthemate]	–	–	–	LC50 (housefly adults; [2]): 4000 µg/mL (≈ 14600 µM)
C#CC(C#CCC=C)OC(=O)C1C(C=C(C)C)C1(C)C (centres unmarked) [Compound 71, 1-Ethynylhexa-2-yn-5-en-1-yl chrysanthemate]	–	–	–	LC50 (housefly adults; [2]): 2900 µg/mL (≈ 10700 µM)
C#CC(C#CCOc1ccccc1)OC(=O)C1C(C=C(C)C)C1(C)C (centres unmarked) [Compound 79, 1-Ethynyl-4-phenoxy-2-butyn-1-yl chrysanthemate]	–	–	–	LC50 (housefly adults; [2]): 830 µg/mL (≈ 2470 µM)
C#CC(C=CC1C=CCC1)OC(=O)C1C(C=C(C)C)C1(C)C (centres unmarked) [Compound 102, 1-Ethynyl-3-(2'-cyclopentenyl)-allyl chrysanthemate]	–	–	–	LC50 (housefly adults; [2]): 600 µg/mL (≈ 2010 µM)
C#CC(OC(=O)C1C(C=C(Cl)Cl)C1(C)C)/C(C)=C/CC (centres unmarked) [Compound 126, 1-Ethynyl-2-methyl-2-pentenyl 2',2'-dimethyl-3'-(2",2"-dichlorovinyl)-yclopropanecarboxylate]	300 (≈ 952 µM)	–	–	–
C#CC(OC(=O)C1C(C=C(Cl)Cl)C1(C)C)C(C)=CCC=C (centres unmarked) [Compound 127, 1-Ethynyl-2-methyl-2,5-hexadien-1-yl 2',2'-dimethyl-3'-(2",2"-di-chlorovinyl)-cyclopropane-carboxylate]	250 (≈ 764 µM)	–	–	–
C#CC(OC(=O)C1C(C=C(C)C)C1(C)C)C(C)=CCCC=C (centres unmarked) [Compound 128, 1-Ethynyl-2-methyl-2,6-heptadien-1-yl-chrysanthemate]	900 (≈ 3000 µM)	–	–	–
C#CC(OC(=O)C1C(C=C(Cl)Cl)C1(C)C)C(C)=CCCC=C (centres unmarked) [Compound 129, 1-Ethynyl-2-methyl-2,6-heptadien-1-yl 2',2'-dimethyl-3'-(2",2"-dichlorovinyl)-cyclopropane-carboxylate]	230 (≈ 674 µM)	–	–	–
